Measured values reported in patent US10336762B2 (priority 2017, dated 2019).

Experiments:
[1] = test system: TNFα; assay: cells; assay type: cell-based, human; settings: Homo sapiens, Monocyte, LPS-stimulated human monocytes, TNFα content; read-out: EC50 TNF
[2] = target: IRAK4 enzyme (Homo sapiens (Human), UniProt Q9NWZ3); assay: biochemical; assay type: biochemical; settings: IRAK4 enzyme, TR-FRET (HTRF), 500 μM ATP
Chain of IRAK4 enzyme (Q9NWZ3 whole entry): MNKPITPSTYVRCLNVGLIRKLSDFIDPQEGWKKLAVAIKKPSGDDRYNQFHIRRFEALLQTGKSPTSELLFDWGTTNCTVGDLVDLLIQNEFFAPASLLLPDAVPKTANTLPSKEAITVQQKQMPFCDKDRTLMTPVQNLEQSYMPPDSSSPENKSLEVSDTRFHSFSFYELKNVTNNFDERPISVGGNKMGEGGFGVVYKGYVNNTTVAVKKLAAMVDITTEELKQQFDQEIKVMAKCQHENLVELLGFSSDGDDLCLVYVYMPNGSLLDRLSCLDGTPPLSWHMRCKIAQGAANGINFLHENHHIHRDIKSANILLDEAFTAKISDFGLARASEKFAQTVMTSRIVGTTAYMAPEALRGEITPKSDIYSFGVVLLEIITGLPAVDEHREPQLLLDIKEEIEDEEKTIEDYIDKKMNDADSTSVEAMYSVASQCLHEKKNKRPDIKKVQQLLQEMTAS

Compound	EC50 [1]	IC50 [2]
COC(=O)NC[C@H]1C[C@H](Nc2cc(-c3ccc4cc(C#N)cnn34)ncc2C(=O)NCC#N)C1 [Example 613, methyl (((1r,3r)-3-((5-((cyanomethyl)carbamoyl)-2-(3-cyanopyrrolo[1,2-b]pyridazin-7-yl)pyridin-4-yl)amino)cyclobutyl)methyl)carbamate]	15 nM	< 1 nM
CC(C)(O)[C@H](F)CNC(=O)c1cnc(-c2ccc3cc(C#N)cnn23)cc1N[C@H]1C[C@H](CNC(=O)C2CCO2)C1 (stereo partly shown) [Example 614]	156 nM	2 nM
COC(=O)N[C@H]1C[C@H](CNc2cc(-c3ccc4cc(C#N)cnn34)ncc2C(=O)NC[C@@H](F)C(C)(C)O)C1 [Example 615, methyl ((1R,3r)-3-(((2-(3-cyanopyrrolo[1,2-b]pyridazin-7-yl)-5-(((R)-2-fluoro-3-hydroxy-3-methylbutyl)carbamoyl)pyridin-4-yl)amino)methyl)cyclobutyl)carbamate]	46 nM	< 1 nM
N#Cc1cnn2c(-c3cc(NC45CCC(O)(CC4)CC5)c(C(=O)NCC4CCO4)cn3)ccc2c1 (stereo not shown) [Example 616, 6-(3-cyanopyrrolo[1,2-b]pyridazin-7-yl)-4-((4-hydroxybicyclo[2.2.2]octan-1-yl)amino)-N-(oxetan-2-ylmethyl) nicotinamide]	144 nM	2 nM
N#Cc1cnn2c(-c3cc(NC45CCC(O)(CC4)CC5)c(C(=O)NCC4COC4)cn3)ccc2c1 [Example 617, 6-(3-cyanopyrrolo[1,2-b]pyridazin-7-yl)-4-((4-hydroxybicyclo[2.2.2]octan-1-yl)amino)-N-(oxetan-3-ylmethyl) nicotinamide]	144 nM	2 nM
COC(=O)N[C@]1(C)CC[C@@H](Nc2cc(-c3ccc4cc(C#N)cnn34)ncc2C(=O)NC[C@@H](F)C(C)(C)O)CC1 [Example 618, methyl ((1R,4r)-4-((2-(3-cyanopyrrolo[1,2-b]pyridazin-7-yl)-5-(((R)-2-fluoro-3-hydroxy-3-methylbutyl)carbamoyl)pyridin-4-yl)amino)-1-methylcyclohexyl) carbamate]	335 nM	4 nM
COC(=O)N[C@]1(C)CC[C@H](Nc2cc(-c3ccc4cc(C#N)cnn34)ncc2C(=O)NC[C@@H](F)C(C)(C)O)CC1 [Example 619, methyl ((1S,4s)-4-((2-(3-cyanopyrrolo[1,2-b]pyridazin-7-yl)-5-(((R)-2-fluoro-3-hydroxy-3-methylbutyl)carbamoyl)pyridin-4-yl)amino)-1-methylcyclohexyl) carbamate]	168 nM	3 nM
COC(=O)N(C)C[C@H]1C[C@H](Nc2cc(-c3ccc4cc(C#N)cnn34)ncc2C(=O)NC[C@@H](F)C(C)(C)O)C1 [Example 620, Methyl (((1R,3r)-3-((2-(3-cyanopyrrolo[1,2-b]pyridazin-7-yl)-5-(((R)-2-fluoro-3-hydroxy-3-methylbutyl)carbamoyl)pyridin-4-yl)amino)cyclobutyl)methyl)(methyl)carbamate]	54 nM	1 nM
N#Cc1cnn2c(-c3cc(NC45CCC(O)(CC4)CC5)c(C(=O)NCc4ncco4)cn3)ccc2c1 [Example 621, 6-(3-cyanopyrrolo[1,2-b]pyridazin-7-yl)-4-((4-hydroxybicyclo[2.2.2]octan-1-yl)amino)-N-(oxazol-2-ylmethyl) nicotinamide]	98 nM	1 nM
CC(C)(O)c1coc(CNC(=O)c2cnc(-c3ccc4cc(C#N)cnn34)cc2NC23CCC(O)(CC2)CC3)n1 [Example 622, 6-(3-cyanopyrrolo[1,2-b]pyridazin-7-yl)-4-((4-hydroxybicyclo[2.2.2]octan-1-yl)amino)-N-((4-(2-hydroxypropan-2-yl)oxazol-2-yl)methyl)nicotinamide]	407 nM	2 nM
C#CCNC(=O)c1cnc(-c2ccc3cc(C#N)cnn23)cc1NC12CCC(O)(CC1)CC2 [Example 623, 6-(3-cyanopyrrolo[1,2-b]pyridazin-7-yl)-4-((4-hydroxybicyclo[2.2.2]octan-1-yl)amino)-N-(prop-2-yn-1-yl) nicotinamide]	63 nM	< 1 nM
N#Cc1cnn2c(-c3cc(NC45CCC(O)(CC4)CC5)c(C(=O)NCc4ccc[nH]c4=O)cn3)ccc2c1 [Example 624, 6-(3-cyanopyrrolo[1,2-b]pyridazin-7-yl)-4-((4-hydroxybicyclo[2.2.2]octan-1-yl)amino)-N-((2-oxo-1,2-dihydro-pyridin-3-yl)methyl) nicotinamide]	1640 nM	3 nM
CC(C)(O)[C@H](F)CNC(=O)c1cnc(-c2ccc3cc(C#N)cnn23)cc1Nc1ccc(-c2cnco2)nc1 [Example 625, (R)-6-(3-cyanopyrrolo[1,2-b]pyridazin-7-yl)-N-(2-fluoro-3-hydroxy-3-methylbutyl)-4-((6-(oxazol-5-yl)pyridin-3-yl)amino)nicotinamide]	22 nM	< 1 nM
N#Cc1cnn2c(-c3cc(NC4COC4)c(C(=O)NCC(=O)N4CC(F)(F)C4)cn3)ccc2c1 [Example 626, 6-(3-cyanopyrrolo[1,2-b]pyridazin-7-yl)-N-(2-(3,3-difluoroazetidin-1-yl)-2-oxoethyl)-4-(oxetan-3-ylamino)nicotinamide]	79 nM	< 1 nM
CC(C)(O)[C@H](F)CNC(=O)c1cnc(-c2ccc3cc(C#N)cnn23)cc1Nc1ccc(-c2nnco2)cc1 [Example 627, (R)-4-((4-(1,3,4-oxadiazol-2-yl)phenyl)amino)-6-(3-cyanopyrrolo[1,2-b]pyridazin-7-yl)-N-(2-fluoro-3-hydroxy-3-methylbutyl)nicotinamide]	30 nM	< 1 nM
CC(C)(O)[C@H](F)CNC(=O)c1cnc(-c2ccc3cc(C#N)cnn23)cc1Nc1ccc(-c2cocn2)cc1 [Example 628, (R)-6-(3-cyanopyrrolo[1,2-b]pyridazin-7-yl)-N-(2-fluoro-3-hydroxy-3-methyl-butyl)-4-((4-(oxazol-4-yl)phenyl)amino) nicotinamide]	26 nM	< 1 nM
Cc1ncoc1-c1ccc(Nc2cc(-c3ccc4cc(C#N)cnn34)ncc2C(=O)NC[C@@H](F)C(C)(C)O)cc1 [Example 629, (R)-6-(3-cyanopyrrolo[1,2-b]pyridazin-7-yl)-N-(2-fluoro-3-hydroxy-3-methylbutyl)-4-((4-(4-methyloxazol-5-yl)phenyl)amino)nicotinamide]	22 nM	< 1 nM
CC(C)(O)[C@H](F)CNC(=O)c1cnc(-c2ccc3cc(C#N)cnn23)cc1N[C@H]1CC[C@H](c2cnco2)CC1 [Example 630, 6-(3-cyanopyrrolo[1,2-b]pyridazin-7-yl)-N-((R)-2-fluoro-3-hydroxy-3-methylbutyl)-4-(((1r,4R)-4-(oxazol-5-yl)cyclohexyl)amino)nicotinamide]	9 nM	< 1 nM
Cc1ncoc1[C@H]1CC[C@H](Nc2cc(-c3ccc4cc(C#N)cnn34)ncc2C(=O)NC[C@@H](F)C(C)(C)O)CC1 [Example 631, 6-(3-cyanopyrrolo[1,2-b]pyridazin-7-yl)-N-((R)-2-fluoro-3-hydroxy-3-methylbutyl)-4-(((1r,4R)-4-(4-methyloxazol-5-yl)cyclohexyl)amino) nicotinamide]	21 nM	2 nM
Cc1ncoc1-c1ccc(Nc2cc(-c3ccc4cc(C#N)cnn34)ncc2C(=O)NC[C@@H](F)C(C)(C)O)cn1 [Example 632, (R)-6-(3-cyanopyrrolo[1,2-b]pyridazin-7-yl)-N-(2-fluoro-3-hydroxy-3-methylbutyl)-4-((6-(4-methyloxazol-5-yl)pyridin-3-yl)amino) nicotinamide]	28 nM	< 1 nM
CC(C)(O)[C@H](F)CNC(=O)c1cnc(-c2ccc3cc(C#N)cnn23)cc1NC12CCC(c3cnco3)(CC1)OC2 [Example 633, (R)-6-(3-cyanopyrrolo[1,2-b]pyridazin-7-yl)-N-(2-fluoro-3-hydroxy-3-methylbutyl)-4-((1-(oxazol-5-yl)-2-oxabicyclo[2.2.2]octan-4-yl)amino) nicotinamide]	2 nM	< 1 nM
Cc1ncoc1C12CCC(Nc3cc(-c4ccc5cc(C#N)cnn45)ncc3C(=O)NC[C@@H](F)C(C)(C)O)(CC1)CO2 [Example 634, (R)-6-(3-cyanopyrrolo[1,2-b]pyridazin-7-yl)-N-(2-fluoro-3-hydroxy-3-methylbutyl)-4-((1-(4-methyloxazol-5-yl)-2-oxabicyclo[2.2.2]octan-4-yl)amino)nicotinamide]	7 nM	< 1 nM
CCOc1cc(Nc2cc(-c3ccc4cc(C#N)cnn34)ncc2C(=O)NC[C@@H](F)C(C)(C)O)cnc1-c1cnco1 [Example 635, (R)-6-(3-cyanopyrrolo[1,2-b]pyridazin-7-yl)-4-((5-ethoxy-6-(oxazol-5-yl)pyridin-3-yl)amino)-N-(2-fluoro-3-hydroxy-3-methylbutyl)nicotinamide]	> 10000 nM	8 nM
CC(C)(O)[C@H](F)CNC(=O)c1cnc(-c2ccc3cc(C#N)cnn23)cc1NC1CC(Cc2cnco2)C1 (stereo partly drawn) [Example 636, (R)-6-(3-cyanopyrrolo[1,2-b]pyridazin-7-yl)-N-(2-fluoro-3-hydroxy-3-methylbutyl)-4-((3-(oxazol-5-ylmethyl)cyclobutyl)amino)nicotinamide]	33 nM	< 1 nM
CC(C)(O)[C@H](F)CNC(=O)c1cnc(-c2ccc3cc(C#N)cnn23)cc1N[C@H]1CC[C@H](c2nnco2)CC1 [Example 637, 4-(((1r,4R)-4-(1,3,4-oxadiazol-2-yl)cyclohexyl)amino)-6-(3-cyano-pyrrolo[1,2-b]pyridazin-7-yl)-N-((R)-2-fluoro-3-hydroxy-3-methylbutyl) nicotinamide]	21 nM	< 1 nM
CC(C)(O)[C@H](F)CNC(=O)c1cnc(-c2ccc3cc(C#N)cnn23)cc1N[C@@H]1CC[C@@H](c2cnco2)OC1 [Example 639, 6-(3-cyanopyrrolo[1,2-b]pyridazin-7-yl)-N-((R)-2-fluoro-3-hydroxy-3-methylbutyl)-4-(((3R,6S)-6-(oxazol-5-yl)tetrahydro-2H-pyran-3-yl)amino)nicotinamide]	43 nM	1 nM
